Assay results reported in patent US5498624A, “Selected pyrazolyl derivatives” (Monsanto Company, priority 1995, dated 1996).

Tests used:
Format in all cases: in vivo
[1] = system: Uncinula necator; assay: Vine Powdery Mildew Foliar Assay (VPM Prot); settings: vine seedlings
Protocol: A) Pathogen/Inoculum--Vine powdery mildew, caused by Uncinula necator, is an obligate parasite and must be maintained on a living host. Seedling leaves (2-5 leaf stage) of Vitis vinifera var. Carignane, are inoculated by brushing them with the leaves of infected plants. Incubation environment is the same as that described for incubation (Sec. D).
B) Host Propagation- Approximately 60 gm of seed are removed from cold storage and soaked in water for 2-3 days with frequent (3 or more) water changes each day. They are then combined with 24 gm of vermiculite and 30 ml of distilled water and put into refrigeration for 4-5 weeks. After this `vernalization` period, they are planted, 3 seeds/pot, into individual 2.25" pots filled with a commercial potting mix. The pots are watered well, and placed into a growth chamber set at 24° C., 85% RH and a 12 hour photoperiod at 200-300 me/m^2 /sec. The seedlings are thinned to one seedling/pot approximately 14 days after planting. After four to five additional days, seedlings are moved to the greenhouse. Plants are ready for assay 4-6 weeks after planting.
C) Test Compound Preparation
1) Experimental compounds--A final formulation of each of the compounds of the present invention in 20% acetone, 0.1% Tween®20 and 79.9% water is foliarly applied to the seedling vines at about 1.5 mls/pot (4 pots/treatment) using a DeVilbiss 152 sprayer at the rate of 100, 20 and 10 ppm. The seedlings have 2-4 true leaves at application. Treated pots are allowed to dry in a vented room and are then moved to the inoculation growth chamber (see Sec. D for settings).
2) Controls and standards--The commercial product RALLY=NOVA (myclobutanil)is used as an internal standard. Formulated myclobutanil 40 WP is applied at 100 and 20 ppm in water. Also included in the test is an inoculated control treatment (a water/acetone formulation blank).
D) Inoculation/Incubation--Treated vines are inoculated 24 hours after chemical application. Several diseased leaves are removed from inoculum production plants and are very gently brushed on the leaves of the test plants. This gentle contact and agitation allows spores to be dislodged from diseased leaves and fall onto test plant leaves.
The inoculation/incubation growth chamber is set at 24° C., 85% RH, and 12 hour photoperiod at 350 me/m^2 /sec.
E) Evaluation--The test is rated 7-9 days after inoculation or upon maximum disease expression. Percent area infected with disease is determined for each replicate. Treatment means are calculated and percent disease control is determined by the formula "(control mean--treatment mean) * 100 / control mean". The untreated/inoculated control treatment is used for this calculation. […]

[2] = system: Wheat Leaf Rust; assay: Wheat Leaf Rust Foliar Assay (WLR Prot); settings: 20 ppm foliar protectant
Protocol: A) Pathogen/Inoculum Production--Urediospores of previously infected plants are collected using a small vacuum device and stored in glass vials at -2° C. Just before inoculation the requisite number of vials are warmed and the spores suspended in Soltrol, a light machine oil.
(B) Host Propagation, (C) Compound Preparation and (D) Compound Application follow as per Example 1.
E) Inoculation/Incubation--To inoculate the plants, the urediospore/Soltrol suspension, adjusted to 5×10^4 spores/ml, is applied in a light coating to the foliage, and the plants are placed in a mist tent for 12 to 18 hours at 20° C. in the dark. The test can then be returned to the previous growing conditions until foliar symptoms are evident and the plants can be assessed.
F) Test Evaluation--About 7 days after the plants are removed from the mist tent, the rust lesions should be evident. Three leaves in each pot (replicate) are assessed for percent infection. Phytotoxicity and growth effects are also noted at this time.
G) Data--Follows as per Example 1.

[3] = system: Venturia inaequalis; assay: Apple Scab Foliar Assay (ASC Prot); settings: apple seedlings
Protocol: A) Host Propagation--Apple, var. McIntosh, are collected form trees in the field and stored in a cold room at 4° C. After a minimum of 60 days storage, seed are collected and germinated in vermiculite in 3 inch pots in a growth chamber set at 27° C. day and 23° C. night temperature. When seedlings have emerged and 2-3 true leaves formed, the seedling are transplanted into 4 inch square pots containing a soil medium consisting of commercial potting mix. Seedlings are grown in this medium to the 8-10 leaf stage for use in tests. Before each test, the petiole of the smallest unfolded leaf is marked, with this leaf and the immediate five older leaves sprayed and inoculated in the test. The petiole of the oldest sprayed and inoculated leaf is also marked. The marking facilitates data collection for specific leaves and identification of the application site.
B) Test Compound Preparation--Compounds of the present invention are applied to the upper and lower leaf surfaces of the identified leaves at the rate of 100 and 20 ppm using a DiVilbiss Model 152 hand sprayer. Four plants per treatment are sprayed with 12 mls of spray solution which contains 40% acetone, 59.9% water, and 0.1% Triton B1956. Nova® (myclobutanil) is used as the commercial standard. It is suspended in water and applied at equivalent rates.
C) Pathogen/Inoculum Production--Inoculum from the apple scab pathogen, Venturia inaequalis, is obtained directly by washing conidia off of scab lesions from leaves on apple seedlings or by use of previously collected conidial suspension that has been frozen in a glass vial at -80° C. Conidial suspension concentration is adjusted to approximately 1×10^5 spores/ml by dilution with a solution of 1% v/v V8 juice/water. […]
D) Test Evaluation--Phytotoxicity data, and leaf burning, etc. is collected by treatment at the time of pathogen inoculation and at disease evaluation. Disease is evaluated on day 8-12 by estimating the amount of treated leaf tissue that is covered by apple scab lesions or symptoms. […] The percentage control is calculated as in the above examples.

With C[C@@H]1CCC[C@H](c2ccccc2NC(=O)c2cn(C)nc2C(F)F)C1 (relative stereo) [Number 2, 1H-pyrazole-4-carboxamide, 3-(difluoromethyl)-1-methyl-N-[2-(-3-methylcyclohexyl)phenyl]-, cis-] the “VPM Prot percent disease control” value ([1]; 20 ppm foliar protectant) was 76%, the “VPM Prot percent disease control” value ([1]; 100 ppm foliar protectant) was 91% and the “WLR Prot percent disease control” value [2] was 96%. The “ASC Prot percentage control” value ([3]; 20 ppm foliar protectant) was 58% and the “ASC Prot percentage control” value ([3]; 100 ppm foliar protectant) was 99%.

C[C@H]1CCC[C@H](c2ccccc2NC(=O)c2cn(C)nc2C(F)F)C1 (relative stereo) [Number 3, 1H-pyrazole-4-carboxamide, 3-(difluoromethyl)-1-methyl-N-[2-(3-methylcyclohexyl)phenyl]-, trans-] was tested, and the “VPM Prot percent disease control” value ([1]; 10 ppm foliar protectant) was 34%, the “VPM Prot percent disease control” value ([1]; 20 ppm foliar protectant) was 51% and the “WLR Prot percent disease control” value [2] was 100%. The “ASC Prot percentage control” value ([3]; 20 ppm foliar protectant) was 90%.
